According to patent US10085449B2, “N-[1-((6-chloropyridin-3-yl)methyl)pyridin-2(1H)-ylidene]-2,2,2- trifluoroacetamide for control of agricultural/horticultural pests” (priority 2010, dated 2018):
Where two headings read alike, the source gives them in different places.

How the values were obtained:
[1] = test system: canine heartworm microfilariae; assay: Effects on canine heartworm (motility of microfilariae); design: key: At least two-thirds of the heartworms died; B: Substantially all the heartworms were affected in some way, or at least one-third died; C: No influence, or less than one-third of the heartworms died; conditions: 3.13 ppm in RPMI1640 liquid culture medium, 37° C., observed for 48 hours
Procedure: The activities of the compounds were evaluated based on changes in the motility of microfilariae in canine heartworm. The respective compounds were dissolved in a RPMI1640 liquid culture medium to a concentration of 3.13 ppm, following which about 20 canine heartworm microfilariae were placed in each culture fluid and cultured at 37° C.
Criteria A: At least two-thirds of the heartworms died • B: Substantially all the heartworms were affected in some way, or at least one-third died • C: No influence, or less than one-third of the heartworms died

[2] = test system: small brown planthopper having a low susceptibility to insecticides; assay: Small brown planthopper control test, pests having a low susceptibility to insecticides (soil drenching); assay type: in vivo; conditions: 0.01 mg/seedling soil drenching
Procedure: Rice seedlings grown in pots were subjected to soil drenching treatment with solutions of the inventive compounds at a predetermined concentration prepared to 10% acetone/water. Three days after treatment, ten second-instar small brown planthopper larvae having a low susceptibility to insecticides were released onto each seedling. The seedlings and insects were then held in an incubation chamber at 25° C. (16-hour period of light, 8-hour dark period). Three days after released, the numbers of live and dead insects were counted, and the mortality was calculated from the following formula. The test was carried out as two replications. Mortality (%)=[number of dead insects/(number of live insects+number of dead insects)]×100
The pests used in this test were insects that had been raised indoors for successive generations over a long period of time (susceptible line), and insects that had been raised indoors for successive generations after being collected in 2006 within Kumamoto Prefecture (field-collected line).

greenhouse whitefly = assay: whole plant or invertebrate; assay type: in vivo; conditions: 20 ppm foliar application, eggs on cucumber leaf discs, 14 days after spraying
Procedure: Adult greenhouse whiteflies were released onto cucumber plants grown in pots, and allowed to laid eggs overnight. One day after the start of oviposition, the adults were removed, and the plants and eggs were held in an incubation chamber at 25° C. (16-hour period of light, 8-hour dark period). Three days after the end of oviposition, leaf discs 2.0 cm in diameter were cut from the cucumber plants and, after confirming oviposition thereon, the leaf discs were sprayed with solutions of the inventive compounds at a predetermined concentration prepared to 50% acetone/water (containing 0.05% Tween 20). After spraying, the treated leaf discs were held in an incubation chamber at 25° C. (16-hour period of light, 8-hour dark period). Fourteen days after spraying, the numbers of live and dead insects were counted, and the mortality was calculated from the following formula. This was a two-replication test. Mortality (%)=[(number of oviposited eggs−number of live insects)/number of oviposited eggs]×100

diamondback moth = assay: whole plant or invertebrate; assay type: in vivo; conditions: Plutella xylostella, foliar
Procedure: (§1) Leaf discs 5.0 cm in diameter were cut from cabbage plants grown in pots, and these were sprayed with solutions of the inventive compounds at a predetermined concentration prepared to 50% acetone/water (containing 0.05% Tween 20). The treated leaf discs were air dried, following which second-instar larvae were released onto the discs. The leaf discs and larvae were then held in an incubation chamber at 25° C. (16-hour period of light, 8-hour dark period). Three days after released, the numbers of live and dead insects were counted, and the mortality was calculated from the following formula. This was a two-replication test. Mortality (%)=[number of dead insects/(number of live insects+number of dead insects)]×100

common cutworm = assay: whole plant or invertebrate; assay type: in vivo; conditions: for Insecticidal effects (mortality), common cutworm third-instar larvae: foliar application
Procedure: as §1, with “third-instar” for “second-instar”

cotton aphid = assay: whole plant or invertebrate; assay type: in vivo; conditions: Aphis gossypii, foliar
Procedure: as §1, with “2.0” for “5.0”, “cucumber” for “cabbage”, “first-instar” for “second-instar”

small brown planthopper [3] = assay: whole plant or invertebrate; assay type: in vivo; conditions: Laodelphax striatellus, foliar
Procedure: as §1, with “Rice seedlings” for “Leaf discs 5.0 cm in diameter were cut from cabbage plants”, “pots” for “pots, and these”, “subjected to the foliar application of” for “sprayed with”, “seedlings” for “leaf discs”, “seedlings.” for “discs.”

western flower thrips = assay: whole plant or invertebrate; assay type: in vivo; conditions: Frankliniella occidentalis, foliar
Procedure: as §1, with “2.8” for “5.0”, “bean” for “cabbage”, “first-instar” for “second-instar”

rice leaf bug = assay: whole plant or invertebrate; assay type: in vivo; conditions: foliar, 72 h
Procedure: The treated seedlings were air-dried, then each was placed in a glass cylinder and two second-instar rice leaf bug larvae were released within the same glass cylinder. Following release of the insects, the tube was capped and held in an incubation chamber at 25° C. (16-hour period of light, 8-hour dark period). […] Three days after released, the numbers of live and dead insects were counted, and the mortality was calculated from the following formula. Mortality (%)=[number of dead insects/(number of live insects+number of dead insects)]×100

small brown planthopper [4] = assay: whole plant or invertebrate; assay type: in vivo; conditions: Laodelphax striatellus, in Triticum aestivum, 96 h; for mortality at 0.5 mg/seedling / mortality at 2 mg/seedling / mortality at 20 mg/seedling: read-out: Insecticidal effects (mortality), small brown planthopper second-instar larvae
Procedure: Wheat seedling roots 48 hours after sowing were treated with solutions of the inventive compounds at a predetermined concentration prepared to 10% acetone/water. After allowing the roots to absorb the chemical for 72 hours, ten second-instar small brown planthopper larvae were released onto each seedling. The treated seedlings and larvae were then held in an incubation chamber at 25° C. (16-hour period of light, 8-hour dark period). Four days after released, the numbers of live and dead insects were counted, and the mortality was calculated from the following formula. The test was carried out as two replications. Mortality (%)=[number of dead insects/(number of live insects+number of dead insects)]×100

small brown planthopper [5] = assay: whole plant or invertebrate; assay type: in vivo; conditions: Laodelphax striatellus, 72 h; for pest or weed control at 0.005 mg/pot / pest or weed control at 0.01 mg/pot / pest or weed control at 0.05 mg/pot: rice soil drenching, read-out: Small brown planthopper (rice soil drenching), effect; for pest or weed control at 0.005 mg/pot: 0.005 mg/pot (Table 13); for pest or weed control at 0.01 mg/pot: 0.01 mg/pot (Table 13); for pest or weed control at 0.05 mg/pot: 0.05 mg/pot (Table 13); for mortality at 0.05 mg/seedling / mortality at 0.005 mg/pot / mortality at 0.01 mg/pot / mortality at 0.05 mg/pot: soil; for mortality at 0.005 mg/pot / mortality at 0.01 mg/pot / mortality at 0.05 mg/pot: read-out: Insecticidal effects (mortality), small brown planthopper second-instar larvae
Procedure: Rice seedlings grown in pots were subjected to soil drenching treatment with solutions of the inventive compounds at a predetermined concentration prepared to 10% acetone/water. Three days following treatment, ten second-instar small brown planthopper larvae were released onto each seedling. The treated seedlings and larvae were then held in an incubation chamber at 25° C. (16-hour period of light, 8-hour dark period). Three days after released, the numbers of live and dead insects were counted, and the mortality was calculated from the following formula. The test was carried out as two replications. Mortality (%)=[number of dead insects/(number of live insects+number of dead insects)]×100

[6] = read-out: Insecticidal effects (mortality), diamondback moth second-instar larvae
[7] = read-out: Insecticidal effects (mortality), cotton aphid first-instar larvae
[8] = read-out: Insecticidal effects (mortality), small brown planthopper second-instar larvae
[9] = read-out: Insecticidal effects (mortality), western flower thrips first-instar larvae

CCCSC(=S)SCCN(C#N)Cc1ccc(Cl)nc1 [Compound 8]
Microfilaricidal effect (motility rating) [1]: B

N#Cc1nn(-c2c(Cl)cc(C(F)(F)F)cc2Cl)c(N)c1[S+]([O-])C(F)(F)F (stereo not shown) [fipronil]
Mortality ([2]; field-collected line (2006 Kumamoto Prefecture)): 70% | Mortality ([2]; susceptible line): 100%

CSC(=S)SCCN(C#N)Cc1ccc(Cl)nc1 [Compound 6, 2-[N-(6-chloro-3-pyridylmethyl)cyanamide] ethyl methylcarbonotrithioate]
Microfilaricidal effect (motility rating) [1]: B

O=C(N=c1ccccn1Cc1cnc(Cl)s1)C(F)(F)F [Compound 213]
Mortality (greenhouse whitefly): at least 80%

O=C(N=c1ccccn1Cc1cnc(Cl)c(F)c1)C(F)(F)F [Compound 227, N-[1-((6-chloro-5-fluoropyridin-3-yl)methyl)pyridin-2(1H)-ylidene]-2,2,2-trifluoroacetamide]
mortality at 20 ppm (diamondback moth; [6]): 100% | mortality at 100 ppm (diamondback moth; [6]): 100% | mortality at 500 ppm (diamondback moth; [6]): 100% | mortality at 100 ppm (diamondback moth; in Brassica oleracea, 72 h): ≥ 80% | mortality at 500 ppm (diamondback moth; in Brassica oleracea, 72 h): ≥ 80% | Insecticidal effects (mortality), common cutworm third-instar larvae (common cutworm; 100 ppm): 56 | Insecticidal effects (mortality), common cutworm third-instar larvae (common cutworm; 500 ppm): 100 | mortality at 500 ppm (common cutworm; foliar, 72 h): ≥ 80% | mortality at 1.25 ppm (cotton aphid; [7]): 95% | mortality at 5 ppm (cotton aphid; [7]): 100% | mortality at 20 ppm (cotton aphid; [7]): 100% | mortality at 100 ppm (cotton aphid; [7]): 100% | mortality at 500 ppm (cotton aphid; [7]): 100% | mortality at 20 ppm (cotton aphid; in Cucumis sativus, 72 h): ≥ 80% | mortality at 100 ppm (cotton aphid; in Cucumis sativus, 72 h): ≥ 80% | mortality at 500 ppm (cotton aphid; in Cucumis sativus, 72 h): ≥ 80% | mortality at 5 ppm (small brown planthopper [3]; [8]): 100% | mortality at 100 ppm (small brown planthopper [3]; in Oryza sativa, 72 h): ≥ 80% | mortality at 500 ppm (western flower thrips; 72 h): ≥ 80% | mortality at 100 ppm (western flower thrips; [9]): 65% | mortality at 500 ppm (western flower thrips; [9]): 90% | mortality at 50 ppm (rice leaf bug): ≥ 80% | mortality at 20 µg/seedling (small brown planthopper [4]): ≥ 80% | mortality at 0.5 mg/seedling (small brown planthopper [4]): 50% | mortality at 2 mg/seedling (small brown planthopper [4]): 75% | mortality at 20 mg/seedling (small brown planthopper [4]): 100% | pest or weed control at 0.005 mg/pot (small brown planthopper [5]): 75% | pest or weed control at 0.01 mg/pot (small brown planthopper [5]): 100% | pest or weed control at 0.05 mg/pot (small brown planthopper [5]): 90% | mortality at 0.05 mg/seedling (small brown planthopper [5]): ≥ 80% | mortality at 0.005 mg/pot (small brown planthopper [5]): 75% | mortality at 0.01 mg/pot (small brown planthopper [5]): 100% | mortality at 0.05 mg/pot (small brown planthopper [5]): 90%

O=C(N=c1ccccn1Cc1ccc(Br)nc1)C(F)(F)F [Compound 231, N-[1-((6-bromopyridin-3-yl)methyl)pyridin-2(1H)-ylidene]-2,2,2-trifluoroacetamide]
mortality at 20 ppm (diamondback moth; [6]): 100% | mortality at 100 ppm (diamondback moth; [6]): 100% | mortality at 100 ppm (diamondback moth; in Brassica oleracea, 72 h): ≥ 80% | Insecticidal effects (mortality), common cutworm third-instar larvae (common cutworm; 100 ppm): 0 | Insecticidal effects (mortality), common cutworm third-instar larvae (common cutworm; 500 ppm): 0 | mortality at 1.25 ppm (cotton aphid; [7]): 74% | mortality at 5 ppm (cotton aphid; [7]): 100% | mortality at 20 ppm (cotton aphid; [7]): 100% | mortality at 20 ppm (cotton aphid; in Cucumis sativus, 72 h): ≥ 80% | mortality at 100 ppm (small brown planthopper [3]; [8]): 100% | mortality at 500 ppm (western flower thrips; 72 h): ≥ 80% | mortality at 100 ppm (western flower thrips; [9]): 55% | mortality at 500 ppm (western flower thrips; [9]): 85% | mortality at 50 ppm (rice leaf bug): ≥ 80% | mortality at 20 µg/seedling (small brown planthopper [4]): ≥ 80% | mortality at 0.5 mg/seedling (small brown planthopper [4]): 25% | mortality at 2 mg/seedling (small brown planthopper [4]): 75% | mortality at 20 mg/seedling (small brown planthopper [4]): 100% | pest or weed control at 0.005 mg/pot (small brown planthopper [5]): 70% | pest or weed control at 0.01 mg/pot (small brown planthopper [5]): 100% | pest or weed control at 0.05 mg/pot (small brown planthopper [5]): 100% | mortality at 0.05 mg/seedling (small brown planthopper [5]): ≥ 80% | mortality at 0.005 mg/pot (small brown planthopper [5]): 70% | mortality at 0.01 mg/pot (small brown planthopper [5]): 100% | mortality at 0.05 mg/pot (small brown planthopper [5]): 100%

CCSC(=S)SCCN(C#N)Cc1ccc(Cl)nc1 [Compound 7]
Microfilaricidal effect (motility rating) [1]: B
